# Molecular target: Mcl-1 protein (Homo sapiens, UniProt Q07820)
# Assay: Inhibition of Mcl-1 by the fluorescence polarisation technique (Method 1 or Method 2)
# Format: binding
# Conditions: fluorescence polarisation, Fluorescein labelled ligand; Method 1 (not underlined) or Method 2 (underlined); read-out: IC50 (μM) Mcl-1 FP
# Experimental: The relative binding potency of each compound was determined via Fluorescence Polarisation (FP).
# An 11 point serial dilution of each compound was prepared in DMSO and 2 μl transferred into flat bottomed, low binding, 384-well plate (final DMSO concentration 5%). 38 μl of buffer (10 mM 4-(2-hydroxyethyl)-1-piperazineethanesulfonic acid [HEPES], 150 mM NaCl, 0.05% Tween 20, pH 7.4), containing the Fluorescein labelled ligand (final concentration 1 nM) and Mcl-1 protein (final concentration 5 nM) was then added.
# An 11 point serial dilution of each compound was prepared in DMSO and 2 μl transferred into flat bottomed, low binding, 384-well plate (final DMSO concentration 5%). 38 μl of buffer (20 mM Na2HPO4, 1 mM EDTA, 50 mM NaCl, pH 7.4), containing the Fluorescein labelled ligand (final concentration 10 nM) and Mcl-1 protein (final concentration 10 nM) was then added.
# Mcl-1 protein, sequence (Q07820 whole entry): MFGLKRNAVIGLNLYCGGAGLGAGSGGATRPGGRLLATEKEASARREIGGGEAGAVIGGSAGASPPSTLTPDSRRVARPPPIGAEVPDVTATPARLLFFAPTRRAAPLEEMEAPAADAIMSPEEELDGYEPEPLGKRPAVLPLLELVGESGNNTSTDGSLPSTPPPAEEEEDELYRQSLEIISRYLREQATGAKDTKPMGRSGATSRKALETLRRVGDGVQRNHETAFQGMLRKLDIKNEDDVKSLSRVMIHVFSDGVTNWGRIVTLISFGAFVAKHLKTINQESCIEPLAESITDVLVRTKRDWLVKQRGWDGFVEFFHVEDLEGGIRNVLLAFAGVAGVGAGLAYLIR
row,IC50 [µM],SMILES
1,0.839,"CCc1sc2ncnc(N[C@@H](Cn3cccn3)C(=O)O)c2c1-c1cccc(Cl)c1C (racemic) [Example 110, N-[5-(3-chloro-2-methylphenyl)-6-ethylthieno[2,3-d]pyrimidin-4-yl]-3-(1H-pyrazol-1-yl)alanine]"
2,12,"CCc1sc2ncnc(N[C@H](Cc3ccccc3)C(=O)O)c2c1-c1cccc2cc[nH]c12 (single isomer, unassigned) [Example 72, N-[6-ethyl-5-(1H-indol-7-yl)thieno[2,3-d]pyrimidin-4-yl]-D-phenylalanine]"
3,11.7,"CCc1sc2ncnc(N[C@@H](C(=O)O)c3ccccc3)c2c1-c1cccc2ccccc12 (single isomer, unassigned) [Example 160]"
4,7.88,"CCc1sc2ncnc(N[C@H](Cc3cccc4ccccc34)C(=O)O)c2c1-c1cccc2ccccc12 (single isomer, unassigned) [Example 186, N-[6-ethyl-5-(naphthalen-1-yl)thieno[2,3-d]pyrimidin-4-yl]-3-naphthalen-1-yl-D-alanine]"
5,0.751,"CC(C)c1sc2ncnc(N[C@H](Cc3ccccc3)C(=O)O)c2c1-c1cccc2ccccc12 (single isomer, unassigned) [Example 202, N-[5-(naphthalen-1-yl)-6-(propan-2-yl)thieno[2,3-d]pyrimidin-4-yl]-D-phenylalanine]"
6,8.84,"CC(O)c1sc2ncnc(N[C@H](Cc3ccccc3)C(=O)O)c2c1-c1cccc2ccccc12 (single isomer, unassigned) [Example 206, N-[6-(1-hydroxyethyl)-5-(naphthalen-1-yl)thieno[2,3-d]pyrimidin-4-yl]-D-phenylalanine]"
7,0.632,"O=C(O)[C@@H](Cc1ccccc1)Nc1ncnc2sc(C(F)F)c(-c3cccc4ccccc34)c12 (single isomer, unassigned) [Example 208, N-[6-(difluoromethyl)-5-(naphthalen-1-yl)thieno[2,3-d]pyrimidin-4-yl]-D-phenylalanine]"
8,0.091,"CCc1sc2ncnc(N[C@H](CC3CCCCC3)C(=O)O)c2c1-c1cccc2[nH]ccc12 (single isomer, unassigned) [Example 242, 3-cyclohexyl-N-[6-ethyl-5-(1H-indol-4-yl)thieno[2,3-d]pyrimidin-4-yl]-D-alanine]"
9,0.073,"CCc1sc2ncnc(N[C@H](CC3CCCCC3)C(=O)O)c2c1-c1cccc2[nH]ccc12 (single isomer, unassigned) [Example 243, 3-cyclohexyl-N-[6-ethyl-5-(1H-indol-4-yl)thieno[2,3-d]pyrimidin-4-yl]-D-alanine]"
10,0.005,"CC#Cc1sc2ncnc(NC(Cc3ccccc3OCc3ccnc(-c4ccccc4OC)n3)C(=O)O)c2c1-c1ccc(OCCN2CCN(C)CC2)c(Cl)c1C [Example 45, N-[(5Sa)-5-{3-chloro-2-methyl-4-[2-(4-methylpiperazin-1-yl)ethoxy]phenyl}-6-(prop-1-yn-1-yl)thieno[2,3-d]pyrimidin-4-yl]-2-{[2-(2-methoxyphenyl)pyrimidin-4-yl]methoxy}-D-phenylalanine]"
11,0.301,"CCc1sc2ncnc(NC(Cc3ccccc3)C(=O)O)c2c1-c1cc(Cl)c(O)c(Cl)c1C [Example 52, N-[(5Ra)-5-(3,5-dichloro-4-hydroxy-2-methylphenyl)-6-ethylthieno[2,3-d]pyrimidin-4-yl]-D-phenylalanine]"
12,0.02,"CCc1sc2ncnc(NC(Cc3ccccc3)C(=O)O)c2c1-c1cc(Cl)c(O)c(Cl)c1C [Example 53, N-[(5Sa)-5-(3,5-dichloro-4-hydroxy-2-methylphenyl)-6-ethylthieno[2,3-d]pyrimidin-4-yl]-D-phenylalanine]"

# Continued, compound first:
row,SMILES,IC50 [µM]
1,"CCc1sc2ncnc(N[C@H](Cc3ccccc3)C(=O)O)c2c1-c1cccc2cc[nH]c12 (single isomer, unassigned) [Example 71, N-[6-ethyl-5-(1H-indol-7-yl)thieno[2,3-d]pyrimidin-4-yl]-D-phenylalanine]",39
2,"CCc1sc2ncnc(N[C@@H](C(=O)O)c3ccccc3)c2c1-c1cccc2ccccc12 (single isomer, unassigned) [Example 161]",12.6
3,"CCc1sc2ncnc(N[C@H](Cc3ccccc3C)C(=O)O)c2c1-c1cccc2ccccc12 (single isomer, unassigned) [Example 167, N-[6-ethyl-5-(naphthalen-1-yl)thieno[2,3-d]pyrimidin-4-yl]-2-methyl-D-phenylalanine]",1.15
4,"CCc1sc2ncnc(N[C@H](Cc3ccccc3C)C(=O)O)c2c1-c1cccc2ccccc12 (single isomer, unassigned) [Example 168, N-[6-ethyl-5-(naphthalen-1-yl)thieno[2,3-d]pyrimidin-4-yl]-2-methyl-D-phenylalanine]",4.78
5,"CCc1sc2ncnc(N[C@H](Cc3cccc4ccccc34)C(=O)O)c2c1-c1cccc2ccccc12 (single isomer, unassigned) [Example 187, N-[6-ethyl-5-(naphthalen-1-yl)thieno[2,3-d]pyrimidin-4-yl]-3-naphthalen-1-yl-D-alanine]",1.39
6,"CCc1sc2ncnc(N[C@@H](C(=O)O)c3ccccc3-c3ccccc3)c2c1-c1cccc2ccccc12 (single isomer, unassigned) [Example 188]",21.3
7,"CCc1sc2ncnc(N[C@@H](C(=O)O)c3cccc(-c4ccccc4)c3)c2c1-c1cccc2ccccc12 (single isomer, unassigned) [Example 189]",8.33
8,"CC(C)c1sc2ncnc(N[C@H](Cc3ccccc3)C(=O)O)c2c1-c1cccc2ccccc12 (single isomer, unassigned) [Example 201, N-[5-(naphthalen-1-yl)-6-(propan-2-yl)thieno[2,3-d]pyrimidin-4-yl]-D-phenylalanine]",0.136
9,"O=C(O)[C@@H](Cc1ccccc1)Nc1ncnc2sc(C(F)F)c(-c3cccc4ccccc34)c12 (single isomer, unassigned) [Example 207, N-[6-(difluoromethyl)-5-(naphthalen-1-yl)thieno[2,3-d]pyrimidin-4-yl]-D-phenylalanine]",0.136
10,"COc1ccccc1-c1nccc(COc2ccccc2CC(Nc2ncnc3sc(-c4ccc(F)cc4)c(-c4ccc(OCCN5CCN(C)CC5)c(Cl)c4C)c23)C(=O)O)n1 [Example 7, N-[(5Sa)-5-{3-chloro-2-methyl-4-[2-(4-methylpiperazin-1-yl)ethoxy]phenyl}-6-(4-fluorophenyl)thieno[2,3-d]pyrimidin-4-yl]-2-{[2-(2-methoxyphenyl)pyrimidin-4-yl]methoxy}-D-phenylalanine]",0.008
11,"CCCCn1nccc1COc1ccccc1CC(Nc1ncnc2sc(-c3ccc(F)o3)c(-c3ccc(OCCN4CCN(C)CC4)c(Cl)c3C)c12)C(=O)O [Example 24, 2-[(1-butyl-1H-pyrazol-5-yl)methoxy]-N-[(5Sa)-5-{3-chloro-2-methyl-4-[2-(4-methylpiperazin-1-yl)ethoxy]phenyl}-6-(5-fluorofuran-2-yl)thieno[2,3-d]pyrimidin-4-yl]-D-phenylalanine]",0.008
12,"CCc1sc2ncnc(NC(Cc3ccccc3)C(=O)O)c2c1-c1cc(Cl)c(OCCN2CCN(C)CC2)c(Cl)c1C [Example 54, N-((5Sa)-5-{3,5-dichloro-2-methyl-4-[2-(4-methylpiperazin-1-yl)ethoxy]phenyl}-6-ethylthieno[2,3-d]pyrimidin-4-yl)-D-phenylalanine]",0.541
13,"CCc1sc2ncnc(NC(Cc3ccccc3)C(=O)O)c2c1-c1cc(Cl)c(OCCN2CCN(C)CC2)c(Cl)c1C [Example 55, N-((5Ra)-5-{3,5-dichloro-2-methyl-4-[2-(4-methylpiperazin-1-yl)ethoxy]phenyl}-6-ethylthieno[2,3-d]pyrimidin-4-yl)-D-phenylalanine]",8.84
14,"CCc1sc2ncnc(NC(Cc3ccccc3)C(=O)O)c2c1-c1ccc(OCCO)c(Cl)c1C [Example 56, N-{(5Sa)-5-[3-chloro-4-(2-hydroxyethoxy)-2-methylphenyl]-6-ethylthieno[2,3-d]pyrimidin-4-yl}-D-phenylalanine]",0.019

# Same assay, conditions: partial inhibitors; @ 10 μM test compound
row,"percentage fluorescence polarisation inhibition, Mcl-1 FP [% @ 10 μM]",SMILES
1,54.9,"Cc1c(-c2c(-c3ccsc3)sc3ncnc(NC(Cc4ccccc4F)C(=O)O)c23)ccc(OCCN2CCN(C)CC2)c1Cl [Example 33, N-[(5Ra)-5-{3-chloro-2-methyl-4-[2-(4-methylpiperazin-1-yl)ethoxy]phenyl}-6-(thiophen-3-yl)thieno[2,3-d]pyrimidin-4-yl]-2-fluoro-D-phenylalanine]"

# Same assay, conditions: partial inhibitors; @ 100 μM test compound; 100 µM
row,"percentage fluorescence polarisation inhibition, Mcl-1 FP [% @ 100 μM]",SMILES
1,71.85,"CC(O)c1sc2ncnc(N[C@H](Cc3ccccc3)C(=O)O)c2c1-c1cccc2ccccc12 (single isomer, unassigned) [Example 203, N-[6-(1-hydroxyethyl)-5-(naphthalen-1-yl)thieno[2,3-d]pyrimidin-4-yl]-D-phenylalanine]"
2,44.8,"CC(O)c1sc2ncnc(N[C@H](Cc3ccccc3)C(=O)O)c2c1-c1cccc2ccccc12 (single isomer, unassigned) [Example 204, N-[6-(1-hydroxyethyl)-5-(naphthalen-1-yl)thieno[2,3-d]pyrimidin-4-yl]-D-phenylalanine]"
3,26.2,"CC(O)c1sc2ncnc(N[C@H](Cc3ccccc3)C(=O)O)c2c1-c1cccc2ccccc12 (single isomer, unassigned) [Example 205, N-[6-(1-hydroxyethyl)-5-(naphthalen-1-yl)thieno[2,3-d]pyrimidin-4-yl]-D-phenylalanine]"

# — patent US10457687B2, “Aminoacid derivatives, a process for their preparation and pharmaceutical compositions containing them” (LES LABORATOIRES SERVIER, priority 2015, dated 2019)
